From patent US12077503B2, “Substituted cyclic amides and their use as herbicides” (FMC CORPORATION, priority 2015, dated 2024)

Tests used:
Format in all cases: in vivo
Kochia (Kochia scoparia) [1] = experiment: Test A preemergence; conditions: Bassia scoparia, pre-emergence, 240 h, 0 to 100 scale where 0 is no effect and 100 is complete control, read-out: Kochia plant response rating
Outline: (§1)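 Seeds sprayed preemergence with a directed soil spray, or plants at 2 to 10 cm height and one- to two-leaf stage sprayed postemergence, with test chemicals in a non-phytotoxic solvent mixture containing surfactant, in loam soil–sand blend. Injury rated visually against untreated controls after about 10 d in greenhouse, 0 (no effect) to 100 (complete control).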

[2] = tested on: barnyardgrass (Echinochloa crus-galli); experiment: Test A preemergence; conditions: Echinochloa crus-galli, pre-emergence, 240 h, 0 to 100 scale where 0 is no effect and 100 is complete control, read-out: Barnyardgrass plant response rating
Outline: as §1

[3] = tested on: giant foxtail (Setaria faberii); experiment: Test A preemergence; conditions: Setaria faberi, pre-emergence, 240 h, 0 to 100 scale where 0 is no effect and 100 is complete control, read-out: Foxtail, Giant plant response rating
Outline: as §1

[4] = tested on: pigweed (Amaranthus retroflexus); experiment: Test A preemergence; conditions: Amaranthus retroflexus, pre-emergence, 240 h, 0 to 100 scale where 0 is no effect and 100 is complete control, read-out: Pigweed plant response rating
[5] = tested on: ragweed (common ragweed, Ambrosia elatior); experiment: Test A preemergence; conditions: Ambrosia artemisiifolia, pre-emergence, 240 h, 0 to 100 scale where 0 is no effect and 100 is complete control, read-out: Ragweed plant response rating
Outline: as §1

[6] = tested on: ryegrass, Italian (Italian ryegrass, Lolium multiflorum); experiment: Test A preemergence; conditions: Lolium multiflorum, pre-emergence, 240 h, 0 to 100 scale where 0 is no effect and 100 is complete control, read-out: Ryegrass, Italian plant response rating
Outline: as §1

[7] = tested on: Galium (catchweed bedstraw, Galium aparine); experiment: Test A postemergence; conditions: Galium, post-emergence, 240 h, Postemergence, read-out: Galium plant response rating (0 to 100 scale)
Outline: as §1

Kochia (Kochia scoparia) [8] = experiment: Test A postemergence; conditions: Bassia scoparia, post-emergence, 240 h, Postemergence, read-out: Kochia plant response rating (0 to 100 scale)
Outline: as §1

[9] = tested on: barnyardgrass (Echinochloa crus-galli); experiment: Test A postemergence; conditions: Echinochloa crus-galli, post-emergence, 240 h, Postemergence
Outline: as §1

[10] = tested on: blackgrass (Alopecurus myosuroides); experiment: Test A postemergence; conditions: Alopecurus myosuroides, post-emergence, 240 h, Postemergence, read-out: Blackgrass plant response rating (0 to 100 scale)
Outline: as §1

corn (Zea mays) = experiment: Test A postemergence; conditions: Zea mays, post-emergence, 240 h, Postemergence, read-out: Corn plant response rating (0 to 100 scale)
Outline: as §1

[11] = tested on: giant foxtail (Setaria faberii); experiment: Test A postemergence; conditions: Setaria faberi, post-emergence, 240 h, Postemergence, read-out: Foxtail, Giant plant response rating (0 to 100 scale)
Outline: as §1

[12] = tested on: pigweed (Amaranthus retroflexus); experiment: Test A postemergence; conditions: Amaranthus retroflexus, post-emergence, 240 h, Postemergence, read-out: Pigweed plant response rating (0 to 100 scale)
Outline: as §1

[13] = tested on: ragweed (common ragweed, Ambrosia elatior); experiment: Test A postemergence; conditions: Ambrosia artemisiifolia, post-emergence, 240 h, Postemergence, read-out: Ragweed plant response rating (0 to 100 scale)
Outline: as §1

[14] = tested on: ryegrass, Italian (Italian ryegrass, Lolium multiflorum); experiment: Test A postemergence; conditions: Lolium multiflorum, post-emergence, 240 h, Postemergence, read-out: Ryegrass, Italian plant response rating (0 to 100 scale)
Outline: as §1

[15] = tested on: wheat (Triticum aestivum); experiment: Test A postemergence; conditions: Triticum aestivum, post-emergence, 240 h, Postemergence, read-out: Wheat plant response rating (0 to 100 scale)
Outline: as §1

[16] = tested on: barnyardgrass (Echinochloa crus-galli); experiment: Test B flooded paddy test; conditions: Echinochloa crus-galli, 250 g ai/ha, Flood; 0 to 100 scale where 0 is no effect and 100 is complete control; read-out: Barnyardgrass plant response rating
Outline: (§2)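 Evaluation by eye, against controls, occurred 13–15 d post-treatment in a greenhouse, using a 0 (no effect) to 100 (complete control) scale. Application was into the paddy water, 3 cm deep over the soil, on 2-leaf plants.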

[17] = tested on: ducksalad (Heteranthera limosa); experiment: Test B flooded paddy test; conditions: Heteranthera limosa, 250 g ai/ha, Flood; 0 to 100 scale where 0 is no effect and 100 is complete control; read-out: Ducksalad plant response rating
Outline: as §2

rice (Oryra sativa) = experiment: Test B flooded paddy test; conditions: Oryza sativa, 250 g ai/ha, Flood; 0 to 100 scale where 0 is no effect and 100 is complete control; read-out: Rice plant response rating
Outline: as §2

[18] = tested on: sedge, umbrella (small-flower umbrella sedge, Cyperus difformis); experiment: Test B flooded paddy test; conditions: Cyperus difformis, 250 g ai/ha, Flood; 0 to 100 scale where 0 is no effect and 100 is complete control; read-out: Sedge, Umbrella plant response rating
Outline: as §2

[19] = 125 g ai/ha, preemergence, visual injury rating, approximately 10 d
[20] = 125 g ai/ha, visual rating about 10 d after treatment
[21] = 31 g ai/ha, 0 is no effect, 100 is complete control

CN1C[C@H](c2cccc(C(F)(F)F)c2)[C@@H](C(=O)Nc2ccccc2-n2cccn2)C1=O [Compound 1284]
0%: pest or weed control at 31 g/ha (Kochia (Kochia scoparia) [1]; 31 g ai/ha, Preemergence) | pest or weed control at 125 g/ha (Kochia (Kochia scoparia) [1]; [19]) | pest or weed control at 31 g/ha ([2]; 31 g ai/ha, Preemergence) | pest or weed control at 125 g/ha [2, 19] | pest or weed control at 31 g/ha ([3]; 31 g ai/ha, Preemergence) | pest or weed control at 125 g/ha [3, 19] | pest or weed control at 31 g/ha ([4]; 31 g ai/ha, Preemergence) | pest or weed control at 125 g/ha [4, 19] | pest or weed control at 31 g/ha ([5]; 31 g ai/ha, Preemergence) | pest or weed control at 125 g/ha [5, 19] | pest or weed control at 31 g/ha ([6]; 31 g ai/ha, Preemergence) | pest or weed control at 125 g/ha [6, 19] | pest or weed control at 125 g/ha [7, 20] | pest or weed control at 31 g/ha [7, 21] | pest or weed control at 125 g/ha (Kochia (Kochia scoparia) [8]; [20]) | pest or weed control at 31 g/ha (Kochia (Kochia scoparia) [8]; [21]) | pest or weed control at 125 g/ha ([9]; 125 g ai/ha, visual rating about 10 d after treatment, read-out: Barnyardgrass plant response rating (0 to 100 scale, 0 no effect, 100 complete control)) | pest or weed control at 31 g/ha ([9]; 31 g ai/ha, 0 is no effect, 100 is complete control, read-out: Barnyardgrass plant response rating (0 to 100 scale)) | pest or weed control at 125 g/ha [10, 20] | pest or weed control at 31 g/ha [10, 21] | plant injury at 125 g/ha (corn (Zea mays); [20]) | plant injury at 31 g/ha (corn (Zea mays); [21]) | pest or weed control at 125 g/ha [11, 20] | pest or weed control at 31 g/ha [11, 21] | pest or weed control at 125 g/ha [12, 20] | pest or weed control at 31 g/ha [12, 21] | pest or weed control at 125 g/ha [13, 20] | pest or weed control at 31 g/ha [13, 21] | pest or weed control at 125 g/ha [14, 20] | pest or weed control at 31 g/ha [14, 21] | plant injury at 125 g/ha [15, 20] | plant injury at 31 g/ha [15, 21] | pest or weed control at 250 g/ha [16] | pest or weed control at 250 g/ha [17] | pest or weed control at 250 g/ha (rice (Oryra sativa)) | pest or weed control at 250 g/ha [18]
